{
  "source": "patent US20240300949A1",
  "about": "“NOVEL CRYSTALLINE FORM OF 1-(8-BROMOPYRIDO[2,3-E][1,2,4]TRIAZOLO[4,3-A]PYRAZIN-4-YL)-N-METHYLAZETIDIN-3-AMINE HEMISUCCINATE” (JW PHARMACEUTICAL CORPORATION, priority 2021, published 2024)",
  "key": {"[1]": {"test": "solid-state stability on drying in vacuum oven at 60° C. (XRPD, FIG. 8)", "format": "physicochemical", "description": "Form F is a channel hydrate and generally channel hydrates/solvates are not very stable since the solvent molecules easily can move in and out of the channels and causes collapse of the crystal lattice. In the case of form F the water molecules are placed in the same molecular plane as the succinate molecules which stabilize the hydrate and makes form F particularly useful for use in a solid pharmaceutical product, such as in a tablet. Furthermore, form F can be dried under moderate drying conditions such as in a vacuum oven at 60° C. […] Also form F has been found suitable for large scale drying.\nFIG. 8: XRPD's of Form F stored in vacuum at 60° for different periods of time. At each time point of a quick XRPD (9 min) and a normal XRPD (1 hour) were recorded\nXRPD patterns were collected with a PANalytical X'pert Empyrean diffractometer using an incident Cu Kα radiation and operating at 45 kV and 40 mA. The XRPD patterns were collected in the 2 theta range from 3 to 60 degrees with a step size of 0.013°, counting time of 198.645s and in transmission geometry. 25 repetitions were done and summarized. In the incident beam path, an parabolic shaped beam Cu W/Si (hybrid MPD) monochromator together with a 10 mm fixed mask, fixed anti-scatter slit ⅛° and fixed divergence slits of 1/16° were placed to line focus the Cu Kα X-rays through the sample and onto the detector. […]"}, "[2]": {"test": "solid-state stability on micronization", "format": "physicochemical"}, "[3]": {"test_system": "inflammatory cells such as mast cells and eosinophils", "settings": "background statement, refers to U.S. Pat. No. 9,586,959; cited from earlier work"}, "histamine 4 receptor": {"biological_target": "histamine 4 receptor (Homo sapiens, UniProt Q9H3N8)", "sequence (Q9H3N8 whole entry)": "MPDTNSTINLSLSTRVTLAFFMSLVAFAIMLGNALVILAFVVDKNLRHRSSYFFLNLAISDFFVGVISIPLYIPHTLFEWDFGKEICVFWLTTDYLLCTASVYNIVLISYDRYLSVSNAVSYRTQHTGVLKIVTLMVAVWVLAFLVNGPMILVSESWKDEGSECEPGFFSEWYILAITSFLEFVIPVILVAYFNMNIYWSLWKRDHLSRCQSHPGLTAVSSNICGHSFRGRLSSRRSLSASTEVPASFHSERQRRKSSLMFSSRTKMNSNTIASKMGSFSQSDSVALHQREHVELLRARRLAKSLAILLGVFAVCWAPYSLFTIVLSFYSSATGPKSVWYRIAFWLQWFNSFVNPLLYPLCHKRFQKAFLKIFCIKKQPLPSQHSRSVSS", "settings": "background statement, refers to U.S. Pat. No. 9,586,959; cited from earlier work"}},
  "data": [
    {"molecule": "1-(8-bromopyrido[2,3-e][1,2,4]triazolo[4,3-a]pyrazin-4-yl)-N-methylazetidin-3-amine hemisuccinate monohydrate [form F]", "values": [
      {"measurement": "crystal lattice stability on drying", "setting": "[1]", "result": "without collapsing the crystal lattice"},
      {"measurement": "stability of crystalline form on micronization", "setting": "[2]", "result": "tolerates micronization without undergoing amorphization"}
    ]},
    {"molecule": "CNC1CN(c2nc3ncc(Br)cc3n3cnnc23)C1", "note": "[1-(8-bromopyrido[2,3-e][1,2,4]triazolo[4,3-a]pyrazin-4-yl)-N-methylazetidin-3-amine]", "values": [
      {"measurement": "effect against histamine induced infiltration of inflammatory cells such as mast cells and eosinophils", "setting": "[3]", "result": "suppressive effects"},
      {"measurement": "histamine 4 receptor inhibitory effect", "setting": "histamine 4 receptor", "result": "strong"}
    ]}
  ]
}
